Data taken from US20250049747A1, “USE OF HYPERPOLARIZING AGENTS ALONE AND IN COMBINATION WITH OTHER THERAPEUTIC AGENTS FOR TREATING CANCERS INCLUDING GLIOBLASTOMA” (Trustees of Tufts College, priority 2021, published 2025).

How the values were obtained:
[1] = breast cancer xenograft model in immunodeficient mice; cited from earlier work
[2] = test system: human glioblastoma U87 cells; experiment: Growth and FUCCI assays in U87 cells (cell counts, cell cycle, recovery test); format: cell-based; details: for FUCCI cell cycle proportion: U87, day 6; for recovery of proliferation after treatment removed: U87, drugs removed at day 6, followed to day 10
Method: U87 (ATCC) cells were cultured under the same conditions as the NG108-15 cells minus the HAT supplement and used at passage 7-10 for experiments.

[3] = test system: U87 cells; experiment: Physiological dye staining of U87 cells (DiBAC4(3), pHrodo Green, LysoSensor Green, Fluo-4 AM); format: cell-based, human
Method: Dye Staining Protocols. For the Live/Dead assay, 1 μM Calcein Green AM and 0.5 μM ethidium homodimer-1 (L3224, ThermoFisher) were added to PBS along with 10 μg/mL of Hoechst to make the staining solution. Half the media was removed from the human neuronal cells that had been incubated with treatments for 3 days and replaced with staining solution. […] Cells were then incubated for 15 min at 37° C. and imaged. For resting membrane potential staining, DiBAC4(3) was used. U87 cells were seeded at 10,000 cells per mL on Matrigel coated plates as described above. Cells were treated with drugs for 6 days with changes in media every other day. On day 6 the media was removed and washed once with dye buffer consisting of Hank's Balanced Salt Solution (HBSS) with 20 mM HEPES at pH 7.4 and then the staining solution, consisting of dye buffer with 2 μM DiBAC4(3) was added to the cells and allowed to incubate for 30 min at 37° C. The staining solution was then removed and fresh staining solution containing the treatments were added to the cells. For cytoplasmic calcium staining, Fluo-4 AM was used. The staining solution consisted of dye buffer with 4 μM Fluo-4 AM and a 1:1 ratio of Pluronic F-127 (20% in DMSO) and allowed to incubate for 30 min at room temperature. The staining solution was then removed, and fresh dye buffer was added and allowed to incubate for 20 min at 37° C. Then dye buffer containing the treatments were added to the cells. For cytoplasmic pH staining, pHrodo Green was used. The staining solution consisted of dye buffer with a 1:1000 dilution of the pHrodo Green stock and a 1:100 dilution of the PowerLoad concentrate (P35373, ThermoFisher). The cells were allowed to incubate for 30 min at 37° C. Staining solution was removed and washed once with dye buffer then fresh dye buffer containing the treatments were added and allowed to incubate for 5 min at 37° C. Calibration curve was done by instead adding the components of the intracellular pH calibration kit (P35379 ThermoFisher). For lysosomal pH staining, LysoSensor Green was used. The staining solution consisted of dye buffer with a 1 μM dilution of LysoSensor Green DND-187 (L7535 ThermoFisher). The cells were incubated as above and staining solution was removed and replaced with dye buffer containing 2.5 μg/mL Hoechst 33342 for 10 min. Hoechst was removed and cells were washed with dye buffer one time before adding dye buffer containing the treatments. Cells were imaged using an EVOS M7000 system outfitted with a GFP filter cube for stains and a DAPI filter for Hoechst. Images were then analyzed using a CellProfiler pipeline.

[4] = human, in vivo; cited from earlier work
[5] = test system: U87 cells; experiment: Antibody staining, BrdU and senescence assays in U87 cells; format: cell-based, human; details: U87, 6 days
Method: Antibody Staining, BrdU and Senescence Assays. NG108-15 cells were plated on PEI and Matrigel coated plates at 15,000 or 30,000 cells/mL, U87 cells at 10,000 cells/mL and grown in imaging media for 6 days with drug treatment. Fresh media was added every 2 days. On day 6, cells were fixed with 4% formaldehyde in PBS for 30 minutes for all antibody staining, except for BrdU which was fixed for 15 minutes, and for the senescence assay which was fixed for 20 min using the Senescence Beta-Galactosidase Staining Kit (9860, CellSignaling) and thereafter stained according to manufacturer's protocol. After fixing, cells were washed twice with PBS, and were permeabilized in PBS with 0.3% Triton-X for 15 min then washed again twice with PBS. The cells for the BrdU assay were additionally treated with 1N HCl for 10 min on ice, followed by a treatment with 2N HCl for 50 min at room temp. Cells were then blocked with standard blocking buffer comprised of TBS containing 10% goat serum, 0.1% BSA, and with 0.05% Tween 20 or without detergent for antibodies against phosphorylated proteins or monoclonal antibodies except for Anti-YAP and Anti-BrdU staining, which were done according to manufacturer's protocol. […] Cells were imaged with an EVOS M7000 system, with at least 50% of each well in a 96 well plate imaged and analyzed using a CellProfiler pipeline for measuring integrated intensity, mean intensity, or nuclear to cytoplasmic ratio of mean intensities.

| SMILES | toxicity on the heart or on normal breast epithelial cells [1] | fold decrease in cell proliferation to control ([2]; U87, 6 days, NS1643 at 50 μM) [fold] | FUCCI cell cycle proportion [2] | recovery of proliferation after treatment removed [2] | resting membrane potential by voltage dye DiBAC4(3) ([3]; U87, 6 day treated) | cytoplasmic calcium levels (Fluo-4AM) ([3]; U87, 6 days) | lysosomal pH (LysoSensor Green) ([3]; U87, 6 days) | blood brain barrier penetrance [4] [%] | NFM and NSE [5] | YAP nuclear to cytoplasmic ratio [5] | astrocytic differentiation markers [5] | cell proliferation compared to single compound alone ([2]; U87, 6 days) | percent reduction in cells compared to control ([2]; U87, 6 days of treatment) [%] | lysosomes (LysoSensor Green signal) ([3]; U87, 6 days) |
| --- | --- | --- | --- | --- | --- | --- | --- | --- | --- | --- | --- | --- | --- | --- |
| O=C(Nc1cc(C(F)(F)F)ccc1O)Nc1cc(C(F)(F)F)ccc1O [NS1643] | did not show any overt toxicity | 1.7 | did not show a large change in proportion of cells | high increase in proliferation | significant hyperpolarization | increase cytoplasmic calcium levels | dramatic alkalization of the lysosomes |  |  |  |  |  |  |  |
| COc1ccnc(C[S+]([O-])c2nc3ccc(OC(F)F)cc3[nH]2)c1OC (centres unmarked) [Pantoprazole, pantoprazole] |  |  | increase in the early S proportion of cells | immediately re-entered the cell cycle |  |  | did not show an alkalinization of the lysosome | 2 | increased | not to have a significant effect | increased | significantly more effective at reducing cell proliferation after 6 days of treatment than TMZ alone | 54 | significant increase in lysosomes |
